Assay results published in US12433952B2, “Antibody-drug conjugates targeting folate receptor alpha and methods of use” (ZYMEWORKS BC INC., priority 2022, dated 2025).
Read-outs that look alike come from different tables or passages of the source.

What was measured:
Experiment in all cases: In vitro cytotoxicity of camptothecin analogues (CellTiter-Glo)
Assay type in all cases: cell-based
SKOV-3 (ovarian cancer) = settings: Homo sapiens, SK-OV-3, 96 h, read-out: pIC50 SKOV-3 (converted)
Procedure: (§1) Cytotoxicity of the camptothecin analogues was assessed in vitro as follows.
(§2) In vitro potency was assessed on multiple cancer cell lines: SK-BR-3 (breast cancer), SKOV-3 (ovarian cancer), Calu-3 (lung cancer), ZR-75-1 (breast cancer) and MDA-MB-468 (breast cancer). Serial dilutions of camptothecin analogues were prepared in RPMI 1640+10% FBS, and 20 μL of each dilution was added to 384-well plates. Cells cultured in log-phase growth were detached by brief incubation in 0.05% Trypsin and resuspended in respective culturing media at 20,000 cells/mL (with the exception of ZR-75 cells, which were resuspended at 10,000 cells/mL). 50 μL of cell suspension was then added to the plates containing test articles. Cells were incubated with test articles for 4 d at 37° C. (with the exception of ZR-75 cells, which were incubated for 5 d). Growth inhibition was assessed by CellTiter-Glo® (Promega Corporation, Madison, WI) and luminescence was measured on a plate reader. IC50 values were determined by GraphPad Prism (GraphPad Software, San Diego CA).

SK-BR-3 (breast cancer) = settings: Homo sapiens, SK-BR-3, 96 h, read-out: pIC50 SKBR-3 (converted)
Procedure: as §1, §2

ZR-75-1 (breast cancer) = settings: Homo sapiens, ZR-75-1, 120 h, read-out: pIC50 ZR-75 (converted)
Procedure: as §1, §2

[1] = system: MDA-MB-468 (breast cancer); settings: Homo sapiens, MDA-MB-468, 96 h, read-out: pIC50 MDA-MB-468 (converted)
Procedure: as §1, §2

Calu-3 (lung cancer) = settings: Homo sapiens, Calu-3, 96 h, read-out: pIC50 Calu-3 (converted)
Procedure: as §1, §2

Row | SMILES | IC50 (SKOV-3 (ovarian cancer); 4 d incubation) | IC50 (SK-BR-3 (breast cancer); 4 d incubation) | IC50 (ZR-75-1 (breast cancer); 5 d incubation) | IC50 ([1]; 4 d incubation) | IC50 (Calu-3 (lung cancer); 4 d incubation) | IC50 (SKOV-3 (ovarian cancer)) | IC50 (SK-BR-3 (breast cancer)) | IC50 (ZR-75-1 (breast cancer)) | IC50 [1] | IC50 (Calu-3 (lung cancer))
1 | CC[C@@]1(O)C(=O)OCc2c1cc1n(c2=O)Cc2c-1nc1cc(F)c(C)cc1c2CN1CCOCC1 [Compound 100, (S)-4-ethyl-8-fluoro-4-hydroxy-9-methyl-11-(morpholinomethyl)-1,12-dihydro-14H-pyrano[3′,4′:6,7]indolizino[1,2-b]quinoline-3,14(4H)-dione] | 2.29 nM | 1.1 nM | 1.23 nM | 2.51 nM | 1.12 nM |  |  |  |  | 
2 | CC[C@@]1(O)C(=O)OCc2c1cc1n(c2=O)Cc2c-1nc1cc(F)c(OC)cc1c2CN1CCOCC1 [Compound 101, (S)-4-ethyl-8-fluoro-4-hydroxy-9-methoxy-11-(morpholinomethyl)-1,12-dihydro-14H-pyrano[3′,4′:6,7]indolizino[1,2-b]quinoline-3,14(4H)-dione] | 1.58 nM | 1.07 nM | 1.07 nM | 2.57 nM |  |  |  |  |  | 
3 | CC[C@@]1(O)C(=O)OCc2c1cc1n(c2=O)Cc2c-1nc1cc(F)c(C)cc1c2CN1CCN(S(=O)(=O)c2ccccc2)CC1 [Compound 102, (S)-4-ethyl-8-fluoro-4-hydroxy-9-methyl-11-((4-(phenylsulfonyl)piperazin-1-yl)methyl)-1,12-dihydro-14H-pyrano[3′,4′:6,7]indolizino[1,2-b]quinoline-3,14(4H)-dione] | 2.14 nM | 0.933 nM | 0.794 nM | 2.34 nM |  |  |  |  |  | 
4 | CC[C@@]1(O)C(=O)OCc2c1cc1n(c2=O)Cc2c-1nc1cc(F)c(OC)cc1c2CN1CCN(S(=O)(=O)c2ccccc2)CC1 [Compound 103, (S)-4-ethyl-8-fluoro-4-hydroxy-9-methoxy-11-((4-(phenylsulfonyl)piperazin-1-yl)methyl)-1,12-dihydro-14H-pyrano[3′,4′:6,7]indolizino[1,2-b]quinoline-3,14(4H)-dione] | 4.37 nM | 1.7 nM | 2.4 nM | 4.68 nM | 2.34 nM |  |  |  |  | 
5 | CC[C@@]1(O)C(=O)OCc2c1cc1n(c2=O)Cc2c-1nc1cc(F)c(C)cc1c2CN1CCN(S(=O)(=O)c2ccc(N)cc2)CC1 [Compound 104, (S)-11-((4-((4-aminophenyl)sulfonyl)piperazin-1-yl)methyl)-4-ethyl-8-fluoro-4-hydroxy-9-methyl-1,12-dihydro-14H-pyrano[3′,4′:6,7]indolizino[1,2-b]quinoline-3,14(4H)-dione] | 7.76 nM | 2.69 nM | 2.57 nM | 2.63 nM | 5.25 nM |  |  |  |  | 
6 | CC[C@@]1(O)C(=O)OCc2c1cc1n(c2=O)Cc2c-1nc1cc(F)c(OC)cc1c2CN1CCN(S(=O)(=O)c2ccc(N)cc2)CC1 [Compound 105, (S)-11-((4-((4-aminophenyl)sulfonyl)piperazin-1-yl)methyl)-4-ethyl-8-fluoro-4-hydroxy-9-methoxy-1,12-dihydro-14H-pyrano[3′,4′:6,7]indolizino[1,2-b]quinoline-3,14(4H)-dione] | 10.7 nM | 3.63 nM | 3.09 nM | 2.75 nM | 4.47 nM |  |  |  |  | 
7 | CC[C@@]1(O)C(=O)OCc2c1cc1n(c2=O)Cc2c-1nc1cc(F)c(C)cc1c2CN1CCN(C)CC1 [Compound 106, (S)-4-ethyl-8-fluoro-4-hydroxy-9-methyl-11-((4-methylpiperazin-1-yl)methyl)-1,12-dihydro-14H-pyrano[3′,4′:6,7]indolizino[1,2-b]quinoline-3,14(4H)-dione] | 7.41 nM | 3.39 nM | 3.8 nM | 9.33 nM | 4.57 nM |  |  |  |  | 
8 | CC[C@@]1(O)C(=O)OCc2c1cc1n(c2=O)Cc2c-1nc1cc(F)c(C)cc1c2CN1CCN(c2ccc(N)cc2)CC1 [Compound 108, (S)-11-((4-(4-aminophenyl)piperazin-1-yl)methyl)-4-ethyl-8-fluoro-4-hydroxy-9-methyl-1,12-dihydro-14H-pyrano[3′,4′:6,7]indolizino[1,2-b]quinoline-3,14(4H)-dione] |  |  |  |  |  | 55 nM | 29.5 nM | 18.6 nM | 47.9 nM | 40.7 nM
9 | CC[C@@]1(O)C(=O)OCc2c1cc1n(c2=O)Cc2c-1nc1cc(F)c(OC)cc1c2CN1CCN(c2ccc(N)cc2)CC1 [Compound 109, (S)-11-((4-(4-aminophenyl)piperazin-1-yl)methyl)-4-ethyl-8-fluoro-4-hydroxy-9-methoxy-1,12-dihydro-14H-pyrano[3′,4′:6,7]indolizino[1,2-b]quinoline-3,14(4H)-dione] | 7.08 nM | 5.75 nM | 5.01 nM | 8.13 nM |  |  |  |  |  | 
10 | CC[C@@]1(O)C(=O)OCc2c1cc1n(c2=O)Cc2c-1nc1cc(F)c(C)cc1c2CN1CCCCC1 [Compound 110, (S)-4-ethyl-8-fluoro-4-hydroxy-9-methyl-11-(piperidin-1-ylmethyl)-1,12-dihydro-14H-pyrano[3′,4′:6,7]indolizino[1,2-b]quinoline-3,14(4H)-dione] | 0.933 nM | 1.32 nM | 0.851 nM | 1.55 nM | 0.813 nM |  |  |  |  | 
11 | CC[C@@]1(O)C(=O)OCc2c1cc1n(c2=O)Cc2c-1nc1cc(F)c(C)cc1c2CN1CCN(C(=O)OC(C)(C)C)CC1 [Compound 111, tert-butyl (S)-4-((4-ethyl-8-fluoro-4-hydroxy-9-methyl-3,14-dioxo-3,4,12,14-tetrahydro-1H-pyrano[3′,4′:6,7]indolizino[1,2-b]quinolin-11-yl)methyl)piperazine-1-carboxylate] | 16.6 nM | 8.51 nM | 9.12 nM | 28.8 nM | 19.5 nM |  |  |  |  | 
12 | CC[C@@]1(O)C(=O)OCc2c1cc1n(c2=O)Cc2c-1nc1cc(F)c(C)cc1c2CN1CCNCC1 [Compound 112, (S)-4-ethyl-8-fluoro-4-hydroxy-9-methyl-11-(piperazin-1-ylmethyl)-1,12-dihydro-14H-pyrano[3′,4′:6,7]indolizino[1,2-b]quinoline-3,14(4H)-dione] | 20 nM | 6.61 nM | 12 nM | 13.5 nM | 17.4 nM |  |  |  |  | 
13 | CC[C@@]1(O)C(=O)OCc2c1cc1n(c2=O)Cc2c-1nc1cc(F)c(C)cc1c2CN1CCO[C@@H](CO)C1 [Compound 113, (S)-4-ethyl-8-fluoro-4-hydroxy-11-(((R)-2-(hydroxymethyl)morpholino)methyl)-9-methyl-1,12-dihydro-14H-pyrano[3′,4′:6,7]indolizino[1,2-b]quinoline-3,14(4H)-dione] |  |  |  |  |  | 4.27 nM | 1.95 nM | 2.19 nM | 3.39 nM | 3.02 nM
14 | CC[C@@]1(O)C(=O)OCc2c1cc1n(c2=O)Cc2c-1nc1cc(F)c(C)cc1c2CNS(C)(=O)=O [Compound 122, (S)—N-((4-ethyl-8-fluoro-4-hydroxy-9-methyl-3,14-dioxo-3,4,12,14-tetrahydro-1H-pyrano[3′,4′:6,7]indolizino[1,2-b]quinolin-11-yl)methyl)methanesulfonamide] |  |  |  |  |  | 9.12 nM | 1.12 nM | 1.29 nM | 1.1 nM | 3.72 nM
15 | CC[C@@]1(O)C(=O)OCc2c1cc1n(c2=O)Cc2c-1nc1cc(F)c(OC)cc1c2CNS(C)(=O)=O [Compound 123, (S)—N-((4-ethyl-8-fluoro-4-hydroxy-9-methoxy-3,14-dioxo-3,4,12,14-tetrahydro-1H-pyrano[3′,4′:6,7]indolizino[1,2-b]quinolin-11-yl)methyl)methanesulfonamide] | 19.5 nM | 1.91 nM | 2.45 nM | 2 nM | 3.72 nM |  |  |  |  | 
16 | CC[C@@]1(O)C(=O)OCc2c1cc1n(c2=O)Cc2c-1nc1cc(F)c(OC)cc1c2CNS(=O)(=O)c1ccc(N)cc1 [Compound 128, (S)-4-amino-N-((4-ethyl-8-fluoro-4-hydroxy-9-methoxy-3,14-dioxo-3,4,12,14-tetrahydro-1H-pyrano[3′,4′:6,7]indolizino[1,2-b]quinolin-11-yl)methyl)benzenesulfonamide] |  |  |  |  |  | 18.2 nM | 5.25 nM | 4.27 nM | 8.32 nM | 
17 | CC[C@@]1(O)C(=O)OCc2c1cc1n(c2=O)Cc2c-1nc1cc(F)c(N)cc1c2CNS(=O)(=O)CCO [Compound 150, (S)—N-((9-amino-4-ethyl-8-fluoro-4-hydroxy-3,14-dioxo-3,4,12,14-tetrahydro-1H-pyrano[3′,4′:6,7]indolizino[1,2-b]quinolin-11-yl)methyl)-2-hydroxyethane-1-sulfonamide] | 63.1 nM | 7.94 nM | 6.46 nM |  |  |  |  |  |  | 
